Results published in patent US9090615B2, “Adamantyl derivatives as cannabinoid receptor 2 agonists” (Hoffmann-La Roche Inc., priority 2012, dated 2015).
pEC50: −log10 of the molar value. Read-outs that look alike come from different tables or passages of the source.

Experiments:
human CB1 receptors = target: T1, human CB1 receptors (Homo sapiens, UniProt P21554); test: functional cAMP assay, CHO cells expressing human CB1; assay type: cell-based
T1 construct: expressed in transfected cells; host or cells: CHO cells
T1 sequence (P21554 whole entry): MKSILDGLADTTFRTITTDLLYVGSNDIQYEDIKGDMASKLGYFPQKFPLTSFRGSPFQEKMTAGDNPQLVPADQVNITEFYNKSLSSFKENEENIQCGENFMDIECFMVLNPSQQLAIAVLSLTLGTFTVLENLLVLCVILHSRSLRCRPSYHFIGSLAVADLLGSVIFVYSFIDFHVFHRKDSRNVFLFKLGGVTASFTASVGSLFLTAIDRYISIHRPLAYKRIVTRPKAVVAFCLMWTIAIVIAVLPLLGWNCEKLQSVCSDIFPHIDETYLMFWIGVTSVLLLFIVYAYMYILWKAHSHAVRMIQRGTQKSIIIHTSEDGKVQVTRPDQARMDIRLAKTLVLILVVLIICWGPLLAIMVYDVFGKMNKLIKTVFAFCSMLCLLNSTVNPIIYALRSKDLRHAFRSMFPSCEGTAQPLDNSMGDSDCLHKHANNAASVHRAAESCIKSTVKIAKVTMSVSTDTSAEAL
Experimental: CHO cells expressing human CB1 or CB2 receptors are seeded 17-24 hours prior to the experiment 50.000 cells per well in a black 96 well plate with flat clear bottom (Corning Costar #3904) in DMEM (Invitrogen No. 31331), 1×HT supplement, with 10% fetal calf serum and incubated at 5% CO2 and 37° C. in a humidified incubator. The growth medium was exchanged with Krebs Ringer Bicarbonate buffer with 1 mM IBMX and incubated at 30° C. for 30 min. Compounds were added to a final assay volume of 100 μl and incubated for 30 min at 30° C. Using the cAMP-Nano-TRF detection kit the assay (Roche Diagnostics) was stopped by the addition of 50 μl lysis reagent (Tris, NaCl, 1.5% Triton X100, 2.5% NP40, 10% NaN3) and 50 μl detection solutions (20 μM mAb Alexa700-cAMP 1:1, and 48 μM Ruthenium-2-AHA-cAMP) and shaken for 2 h at room temperature. The time-resolved energy transfer is measured by a TRF reader (Evotec Technologies GmbH), equipped with a ND:YAG laser as excitation source. The plate is measured twice with the excitation at 355 nm and at the emission with a delay of 100 ns and a gate of 100 ns, total exposure time 10 s at 730 (bandwidth 30 nm) or 645 nm (bandwidth 75 nm), respectively. The FRET signal is calculated as follows: FRET=T730-Alexa730-P(T645-B645) with P=Ru730-B730/Ru645-B645, where T730 is the test well measured at 730 nM, T645 is the test well measured at 645 nm, B730 and B645 are the buffer controls at 730 nm and 645 nm, respectively. cAMP content is determined from the function of a standard curve spanning from 10 μM to 0.1 nM cAMP.
EC50 values were determined using Activity Base analysis (ID Business Solution, Limited). The EC50 values for a wide range of cannabinoid agonists generated from this assay were in agreement with the values published in the scientific literature.

human CB2 receptors = target: T2, human CB2 receptors (Homo sapiens, UniProt P34972); test: functional cAMP assay, CHO cells expressing human CB2; assay type: cell-based
T2 construct: expressed in transfected cells; host or cells: CHO cells
T2 sequence (P34972 whole entry): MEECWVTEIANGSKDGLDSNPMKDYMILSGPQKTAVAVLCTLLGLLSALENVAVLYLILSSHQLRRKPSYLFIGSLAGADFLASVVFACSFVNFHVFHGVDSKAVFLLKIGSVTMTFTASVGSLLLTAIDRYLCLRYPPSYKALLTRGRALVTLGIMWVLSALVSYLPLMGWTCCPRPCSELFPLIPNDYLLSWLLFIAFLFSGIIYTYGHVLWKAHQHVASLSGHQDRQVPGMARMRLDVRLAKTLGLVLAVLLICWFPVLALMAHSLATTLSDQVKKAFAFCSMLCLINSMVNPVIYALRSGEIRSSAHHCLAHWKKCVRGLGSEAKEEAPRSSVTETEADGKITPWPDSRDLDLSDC
Experimental: The growth medium was exchanged with Krebs Ringer Bicarbonate buffer with 1 mM IBMX and incubated at 30° C. for 30 min. Compounds were added to a final assay volume of 100 μl and incubated for 30 min at 30° C. […] The time-resolved energy transfer is measured by a TRF reader (Evotec Technologies GmbH), equipped with a ND:YAG laser as excitation source. The plate is measured twice with the excitation at 355 nm and at the emission with a delay of 100 ns and a gate of 100 ns, total exposure time 10 s at 730 (bandwidth 30 nm) or 645 nm (bandwidth 75 nm), respectively.
EC50 values were determined using Activity Base analysis (ID Business Solution, Limited).

[1] = CHO cells expressing human CB1, read-out: Ec50:CB1 - hu cAMP
[2] = CHO cells expressing human CB2, read-out: Ec50:CB2 - hu cAMP

pEC50 (human CB1 receptors; [1]) | pEC50 (human CB2 receptors; [2]) | Structure (SMILES) | pEC50 (human CB1 receptors) | pEC50 (human CB2 receptors)
 |  | CCCCOC1CCN(C(=O)C23CC4CC(CC(C4)C2)C3)c2ccccc21 (stereo not drawn) [Example 34, Adamantan-1-yl-(4-butoxy-3,4-dihydro-2H-quinolin-1-yl)-methanone] | < 5.00 | 8.14
 |  | O=C(C1[C@H]2C[C@@H]3C[C@@H](C[C@H]1C3)C2)N1CCc2ccccc21 (stereo partly drawn) [Example 37, Adamantan-2-yl-(2,3-dihydro-indol-1-yl)-methanone] | < 5.00 | 8.17
< 5.00 | 8.62 | O=C(NC12CC3CC(CC(C3)C1)C2)N1CCc2ccccc21 [Example 38, 2,3-Dihydro-indole-1-carboxylic acid adamantan-1-ylamide] |  | 
< 5.00 | 7.75 | O=C(N1CCc2cc(F)c(F)cc21)C12CC3CC(CC(C3)C1)C2 [Example 39, Adamantan-1-yl-(5,6-difluoro-2,3-dihydro-indol-1-yl)-methanone] |  | 
< 5.00 | 6.23 | O=C1C2CC3CC1CC(C(=O)N1CCc4ccccc41)(C3)C2 [Example 40, 5-(2,3-Dihydro-indole-1-carbonyl)-adamantan-2-one] |  | 
 |  | O=C(N1Cc2cc(Cl)c(N3CCOCC3)cc2C1)C12CC3CC(CC(C3)C1)C2 [Example 43, Adamantan-1-yl-(5-chloro-6-morpholin-4-yl-1,3-dihydro-isoindol-2-yl)-methanone] | < 5.00 | 7.09
< 5.00 | 7.23 | O=C(N1Cc2cccc(F)c2C1)C12CC3CC(CC(C3)C1)C2 [Example 44, Adamantan-1-yl-(4-fluoro-1,3-dihydro-isoindol-2-yl)-methanone] |  | 
< 5.00 | 7.38 | O=C(N1Cc2ccc(F)cc2C1)C12CC3CC(CC(C3)C1)C2 [Example 45, Adamantan-1-yl-(5-fluoro-1,3-dihydro-isoindol-2-yl)-methanone] |  | 

Structure (SMILES) | pEC50 (human CB1 receptors; [1]) | pEC50 (human CB2 receptors; [2]) | pEC50 (human CB1 receptors) | pEC50 (human CB2 receptors)
CC(C)OC1CCN(C(=O)C23CC4CC(CC(C4)C2)C3)c2ccccc21 (stereo not drawn) [Example 35, Adamantan-1-yl-(4-isopropoxy-3,4-dihydro-2H-quinolin-1-yl)-methanone] | < 5.00 | 6.91 |  | 
